These results are taken from US5840910A, “Pyridine derivatives having anti-ulcerative activity” (Esai Co., Ltd., priority 1986, dated 1998).

Entries after “also recorded” stand apart in the source; their conditions may differ. Counter-ions that a name gives are not always drawn.

As a reminder, the IC50 is the concentration that gives 50% inhibition. Low readings indicate greater potency in that assay, high ones weaker potency in that assay.

One data set addresses T1, H^+ -K^+ ATPase (Sus scrofa, UniProt P19156).
T1 construct: Prepared from the fundic-glands of a fresh mucous membrane of a pig stomach; from tissue; host or cells: pig stomach, fundic glands of fresh mucous membrane (modified method of Saccomani et al., 1977)
As to the kind of experiment: Inhibition against the activity of H^+ -K^+ ATPase. The format is biochemical, pig. To be noted: for IC50: 40 mM Tris-HCl pH 7.40, 37° C., 30 minutes incubation. As to the method:
Prepared from the fundic-glands of a fresh mucous membrane of a pig stomach according to a modified method of Saccomani al. (see Biochem. and Biophys. Acta, 464; 313 (1977)). The compound of the present invention was incubated at various concentration in a 40 mM Tris-HCl buffer solution having a pH of 7.40 together with H^+ -K^+ ATPase and 10 μg/ml of a protein at 37° C. for 30 minutes, followed by the addition of 15 mM KCl. After 10 minutes, the ATPase reaction was initiated by the addition of 3 mM of MgCl2 and ATP. After 10 minutes, the amount of the released inorganic phosphoric acid was determined according to the method of Yoda and Hokin (see Biochem. Biophys. Res. Com., 40, 880 (1970)). The test compound was used as a solution in methanol. The inhibitory effect was determined by subtracting the amount of the released inorganic acid observed with respect to the case wherein a solution of a test compound was added from that with respect to the control wherein only a solvent was added to determine a difference and dividing this difference by the latter amount and shown by percentage.

Data set [1] deals with pentagastrin-stimulated gastric acid secretion. Kind of data set: Pentagastrin-stimulated gastric acid secretion and its recovery in chronic gastric fistula dogs. The format is in vivo, dog. To be noted: for Time required for the acid secretion to recover: 4 mg per kg intraduodenal; for Gastric acid secretion, percent of the control response, 1 hr: 1 hr after 4 mg per kg intraduodenal; for Gastric acid secretion, percent of the control response, 24 hr: 24 hr after 4 mg per kg intraduodenal; for Gastric acid secretion, percent of the control response, 48 hr: 48 hr after 4 mg per kg intraduodenal; for Inhibition of pentagastrin-stimulated gastric acid secretion (in words): within one hour from intraduodenal administration, 4 mg per kg. As for the experimental part:
Chronic gastric fistula dogs were used. The test compound was intraduodenally administered to each dog in an amount of 4 mg per kg. In 1, 24, 48 and 72 hours, respectively, from the time of administration, pentagastrin (6 micron grams per kg) was injected intramuscularly into the dog. Gastric acid secretion, determined and recovery thereof, was determined in terms of percent of the control response.

The subject of data set [2] is histamine-stimulated gastric acid secretion. As to the kind of experiment: Inhibitory effect on histamine-stimulated gastric acid secretion of chronic gastric fistula dogs. The format is in vivo, dog. To be noted: for ED50: Canis lupus familiaris, 1 h, intraduodenal, histamine-stimulated, read-out: ID 50, calculated from the dose-inhibition curve. As to the method:
Chronic gastric fistula dogs were used. Gastric acid secretion of each dog was stimulated by infusing 100 micron grams per kg per hour of histamine. After one hour of histamine infusion, each of the test compounds was administered intraduodenally to each dog, and after one hour of administration, the amount of gastric acid secretion of each test dog was determined. Results wore compared with the control group to which no test compound had been administered and are expressed in terms of percent inhibition.

Data set [3] can be described thus: Toxicological influence, oral, one week, beagle dogs. The format is in vivo. The settings on record: 10 mg/kg per day for one week.
A short description of data set [4]: Toxicological influence, oral, one week, rats. The settings on record: rats (printed rate), 50 mg/kg per day for one week. The format is in vivo.

T1 sequence (P19156 2-1034 limits assumed): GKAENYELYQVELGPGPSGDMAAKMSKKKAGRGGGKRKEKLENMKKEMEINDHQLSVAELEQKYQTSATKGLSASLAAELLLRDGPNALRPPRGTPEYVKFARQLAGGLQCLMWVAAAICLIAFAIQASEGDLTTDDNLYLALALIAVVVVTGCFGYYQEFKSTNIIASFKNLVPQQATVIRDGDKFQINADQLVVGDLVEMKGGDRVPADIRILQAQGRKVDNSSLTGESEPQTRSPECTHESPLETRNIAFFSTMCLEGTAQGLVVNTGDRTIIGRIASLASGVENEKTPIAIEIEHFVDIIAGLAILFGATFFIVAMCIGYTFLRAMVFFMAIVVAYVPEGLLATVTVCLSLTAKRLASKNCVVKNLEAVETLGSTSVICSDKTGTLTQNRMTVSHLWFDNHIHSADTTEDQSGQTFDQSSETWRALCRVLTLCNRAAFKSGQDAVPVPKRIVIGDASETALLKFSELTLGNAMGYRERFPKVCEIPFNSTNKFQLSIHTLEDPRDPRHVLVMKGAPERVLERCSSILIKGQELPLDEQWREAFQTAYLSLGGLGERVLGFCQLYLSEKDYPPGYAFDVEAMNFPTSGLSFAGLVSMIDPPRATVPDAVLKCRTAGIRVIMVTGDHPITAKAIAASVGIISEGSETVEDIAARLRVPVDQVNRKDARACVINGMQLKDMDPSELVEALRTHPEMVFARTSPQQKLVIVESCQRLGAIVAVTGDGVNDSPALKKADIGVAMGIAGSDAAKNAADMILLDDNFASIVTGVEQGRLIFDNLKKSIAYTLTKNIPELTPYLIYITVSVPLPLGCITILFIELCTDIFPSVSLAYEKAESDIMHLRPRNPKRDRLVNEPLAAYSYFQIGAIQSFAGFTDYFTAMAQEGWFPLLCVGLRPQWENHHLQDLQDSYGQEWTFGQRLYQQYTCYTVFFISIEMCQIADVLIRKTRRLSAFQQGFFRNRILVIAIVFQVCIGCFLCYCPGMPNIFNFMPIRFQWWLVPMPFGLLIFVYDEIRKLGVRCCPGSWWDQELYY
T1 sequence (P18434 whole entry partner): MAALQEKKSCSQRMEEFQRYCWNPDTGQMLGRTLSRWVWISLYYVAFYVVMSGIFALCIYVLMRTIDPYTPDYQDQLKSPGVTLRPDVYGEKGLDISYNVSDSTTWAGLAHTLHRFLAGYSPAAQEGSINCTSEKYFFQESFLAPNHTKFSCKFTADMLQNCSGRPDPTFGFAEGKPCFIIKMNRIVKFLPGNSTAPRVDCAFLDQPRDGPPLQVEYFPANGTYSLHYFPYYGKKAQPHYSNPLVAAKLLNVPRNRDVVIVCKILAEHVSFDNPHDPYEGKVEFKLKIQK

`Cc1c(OCCOCc2ccccc2)ccnc1C[S+]([O-])c1nc2ccccc2[nH]1` (stereo not drawn) [Compound 1] gave an IC50 at H^+ -K^+ ATPase of 920 nM.
For the compound `COc1ccc2[nH]c([S+]([O-])Cc3nccc(OCCOCc4ccccc4)c3C)nc2c1` (stereo not drawn) [Compound 2], 1400 nM corresponded to half-maximal inhibition at H^+ -K^+ ATPase (IC50).
On the same count and under the same terms, the same measure for `Cc1c(OCCOCc2ccccc2)ccnc1C[S+]([O-])c1nc2cc(C(F)(F)F)ccc2[nH]1` (stereo not drawn) [Compound 3]: 1000 nM.
In turn, `Cc1c(OCCN2C(=O)CCC2=O)ccnc1C[S+]([O-])c1nc2ccccc2[nH]1` (stereo not drawn) [Compound 4] gave an IC50 on H^+ -K^+ ATPase of 11000 nM. This IC50 is about 11-fold higher than that of the compound before.
Regarding `Cc1c(OCCN2CCCC2=O)ccnc1C[S+]([O-])c1nc2ccccc2[nH]1` (stereo not drawn) [Compound 5], inhibition against H^+ -K^+ ATPase was half-maximal at 2400 nM (IC50). Compared with the last compound, the IC50 is about 4.6-fold lower.
`COCCOCCOc1ccnc(C[S+]([O-])c2nc3cc(C(F)(F)F)ccc3[nH]2)c1C` (stereo not drawn) [Compound 6] displayed an IC50 on H^+ -K^+ ATPase of 550 nM. This IC50 is about 4.4-fold lower than that of the compound before.
Same read-out and setting: the same measure for `COCCOCCOc1ccnc(C[S+]([O-])c2nc3cc(OC)ccc3[nH]2)c1C` (stereo not drawn) [Compound 7]: 1700 nM; for `Cc1c(OCCOCc2ccccn2)ccnc1C[S+]([O-])c1nc2ccccc2[nH]1` (stereo not drawn) [Compound 8]: 1200 nM.
Compound `COc1ccc2[nH]c([S+]([O-])Cc3nccc(OCCN4CCCC4=O)c3C)nc2c1` (stereo not drawn) [Compound 9] had an IC50 on H^+ -K^+ ATPase of 13000 nM.
With `Cc1c(OCCO)ccnc1C[S+]([O-])c1nc2ccccc2[nH]1` (stereo not drawn) [Compound 10], on H^+ -K^+ ATPase, the IC50 turned out to be 1900 nM. Against the preceding compound, the IC50 is about 6.8-fold lower.
`COc1ccc2[nH]c([S+]([O-])Cc3nccc(OCCOCCOCc4ccccc4)c3C)nc2c1` (stereo not drawn) [Compound 11]: on H^+ -K^+ ATPase, the IC50 came out at 4200 nM.
For `Cc1c(OCCOCCOCc2ccccc2)ccnc1C[S+]([O-])c1nc2ccccc2[nH]1` (stereo not drawn) [Compound 12], the half-inhibitory concentration (IC50) at H^+ -K^+ ATPase was determined as 2600 nM.
For `Cc1c(OCCOCCOCc2ccccc2)ccnc1C[S+]([O-])c1nc2cc(C(F)(F)F)ccc2[nH]1` (stereo not drawn) [Compound 13], at H^+ -K^+ ATPase, the IC50 turned out to be 630 nM. This IC50 lies about 4.1-fold lower than the previous one.
`COc1ccc2[nH]c([S+]([O-])Cc3nccc(OCCN4C(=O)CCC4=O)c3C)nc2c1` (stereo not drawn) [Compound 14] came in with an IC50 at H^+ -K^+ ATPase of 10000 nM.
At H^+ -K^+ ATPase, `Cc1c(OCCN2C(=O)CCC2=O)ccnc1C[S+]([O-])c1nc2cc(C(F)(F)F)ccc2[nH]1` (stereo not drawn) [Compound 15] registered an IC50 of 72 nM.
The same measure, in the same setting: for `Cc1c(OCCN2CCCC2=O)ccnc1C[S+]([O-])c1nc2cc(C(F)(F)F)ccc2[nH]1` (stereo not drawn) [Compound 16] the value was 1700 nM; for `COc1ccc2[nH]c([S+]([O-])Cc3nccc(OCCO)c3C)nc2c1` (stereo not drawn) [Compound 17], 3500 nM.
Compound `COCCOCCOc1ccnc(C[S+]([O-])c2nc3ccccc3[nH]2)c1C` (stereo not drawn) [Compound 18] registered an IC50 at H^+ -K^+ ATPase of 3300 nM.
As for `COCCCOc1ccnc(C[S+]([O-])c2nc3ccccc3[nH]2)c1C` (stereo not drawn) [Compound 19, Sodium Salt of 2-[{4-(3-Methoxypropoxy)-3-Methylpyridine-2-Yl}Methylsulfinyl]-1H-Benzimidazole], the “Inhibitory effect on the activity of H^+ -K^+ ATPase (in words)” value on H^+ -K^+ ATPase is “significant inhibitory effect”. Also, half-maximal inhibition against H^+ -K^+ ATPase (IC50) required 1700 nM. For the same compound, in data set [1] (pentagastrin), the “Time required for the acid secretion to recover” value came to 48 h. In addition, the “Gastric acid secretion, percent of the control response, 1 hr” value in data set [1] (pentagastrin) is on record as 0%. Besides, the “Gastric acid secretion, percent of the control response, 24 hr” value in data set [1] (pentagastrin) stood at 61.9%. In addition, the “Gastric acid secretion, percent of the control response, 48 hr” value in data set [1] (pentagastrin) was 121.5%. Besides, the “Recovery of gastric acid secretion (in words)” value in data set [1] (dog, in vivo) is listed as “excellent gastric acid secretion recovery”. Moreover, the “Inhibition of pentagastrin-stimulated gastric acid secretion (in words)” value in data set [1] is recorded as “completely inhibited”. In addition, the “% Inhibition of acid output” value in data set [2] (31.25 μg/Kg intraduodenal) is 34.4%; in data set [2] (62.5 μg/Kg intraduodenal), 50.1%; in data set [2] (125 μg/Kg intraduodenal) it was 67.7%; in data set [2] (250 μg/Kg intraduodenal) it was 87.4%; in data set [2] (500 μg/Kg intraduodenal), 100.0%. For the same compound, in data set [2], the ED50 is 0.0599 mg/kg. Besides, the “Potency compared with Omeprazole, inhibition of gastric acid secretion” value in data set [2] (versus Omeprazole) is recorded as “two times more potent; also recorded: more potent inhibitory activity on gastric acid secretion as compared with Omeprazole”. Also, the Toxicological influence entry in data set [3] and in data set [4] was “No toxicological influence has been observed” in each case.
Compound `CSCCOc1ccnc(C[S+]([O-])c2nc3ccccc3[nH]2)c1C` (stereo not drawn) [Compound 20] came in with an IC50 against H^+ -K^+ ATPase of 2300 nM. This lies in the single-digit micromolar range.
Consider `Cc1c(OCCOc2ccccc2)ccnc1C[S+]([O-])c1nc2ccccc2[nH]1` (stereo not drawn) [Compound 21], for which 1300 nM corresponded to half-maximal inhibition at H^+ -K^+ ATPase (IC50).
In turn, `Cc1c(OCCCO)ccnc1C[S+]([O-])c1nc2ccccc2[nH]1` (stereo not drawn) [Compound 22] displayed an IC50 on H^+ -K^+ ATPase of 1900 nM.
As to `Cc1c(OCCOCCCl)ccnc1C[S+]([O-])c1nc2ccccc2[nH]1` (stereo not drawn) [Compound 23], at H^+ -K^+ ATPase, the IC50 amounted to 1400 nM.
`COc1ccc2[nH]c([S+]([O-])Cc3ncc(C)c(OC)c3C)nc2c1` (stereo not drawn) [Omeprazole, reference compound]: in data set [1] (pentagastrin), the “Time required for the acid secretion to recover” value stood at 72 h. In data set [1] (pentagastrin), the “Gastric acid secretion, percent of the control response, 1 hr” value was determined as 0.3%. For the same compound, the “Gastric acid secretion, percent of the control response, 24 hr” value in data set [1] (pentagastrin) came to 32.3%. Besides, the “Gastric acid secretion, percent of the control response, 48 hr” value in data set [1] (pentagastrin) amounted to 69.1%. In data set [1] (72 hr after 4 mg per kg intraduodenal, pentagastrin), the “Gastric acid secretion, percent of the control response, 72 hr” value is on record as 108.4%. Besides, in data set [1], the “Inhibition of pentagastrin-stimulated gastric acid secretion (in words)” value is listed as “completely inhibited”. Also, the “% Inhibition of acid output” value turned out to be 41.1% in data set [2] (62.5 μg/Kg intraduodenal); 48.6% in data set [2] (125 μg/Kg intraduodenal); 62.1% in data set [2] (250 μg/Kg intraduodenal); 91.2% in data set [2] (500 μg/Kg intraduodenal); 100.0% in data set [2] (1000 μg/Kg intraduodenal). Moreover, the ED50 in data set [2] is 0.112 mg/kg.
